Laboratory results as given in ChEMBL document CHEMBL1155283, “Synthesis and anabolic/androgenic evaluation of novel 9alpha-fluorosteroids” (Eur J Med Chem, 2009).
Activity calls are given as the source filed them. The rule behind the calls is not given here.

How the values were obtained:
Type in all cases: functional, organism-based
Rattus norvegicus [1] = assay: Androgenic activity in Wistar rat assessed as weight of seminal vesicle at 20 mg/kg of corporal weight, sc after 7 days by animal castration method; design: dose 20 mg/kg
Rattus norvegicus [2] = assay: Androgenic activity in Wistar rat assessed as weight of prostate at 20 mg/kg of corporal weight, sc after 7 days by animal castration method; design: dose 20 mg/kg; settings: Prostate gland
Rattus norvegicus [3] = assay: Androgenic activity in Wistar rat assessed as weight of prostate at 10 mg/kg of corporal weight, sc after 7 days by animal castration method; design: dose 10 mg/kg; settings: Prostate gland
Rattus norvegicus [4] = assay: Androgenic activity in Wistar rat assessed as weight of seminal vesicle at 10 mg/kg of corporal weight, sc after 7 days by animal castration method; design: dose 10 mg/kg
Rattus norvegicus [5] = assay: Androgenic activity in Wistar rat assessed as weight of prostate at 40 mg/kg of corporal weight, sc after 7 days by animal castration method; design: dose 40 mg/kg; settings: Prostate gland
Rattus norvegicus [6] = assay: Androgenic activity in Wistar rat assessed as weight of seminal vesicle at 40 mg/kg of corporal weight, sc after 7 days by animal castration method; design: dose 40 mg/kg
Rattus norvegicus [7] = assay: Anabolic activity in Wistar rat assessed as weight of levator ani muscle at 20 mg/kg of corporal weight, sc after 7 days by animal castration method; design: dose 20 mg/kg
Rattus norvegicus [8] = assay: Anabolic activity in Wistar rat assessed as weight of levator ani muscle at 10 mg/kg of corporal weight, sc after 7 days by animal castration method; design: dose 10 mg/kg
Rattus norvegicus [9] = assay: Anabolic activity in Wistar rat assessed as weight of levator ani muscle at 40 mg/kg of corporal weight, sc after 7 days by animal castration method; design: dose 40 mg/kg

SMILES	Activity (Rattus norvegicus [1])	Activity (Rattus norvegicus [2])	Activity (Rattus norvegicus [3])	Activity (Rattus norvegicus [4])	Activity (Rattus norvegicus [5])	Activity (Rattus norvegicus [6])	Activity (Rattus norvegicus [7])	Activity (Rattus norvegicus [8])	Activity (Rattus norvegicus [9])
CCCCCCC(=O)O[C@H]1CC[C@H]2[C@@H]3CC[C@H]4C[C@@H](O)CC[C@]4(C)[C@@]3(F)[C@@H](O)C[C@]12C	inactive	inactive	inactive	inactive	inactive	inactive	–	–	–
C[C@]12CC[C@H](O)C[C@@H]1CC[C@H]1[C@@H]3CCC(=O)[C@@]3(C)C[C@H](O)[C@@]12F	inactive	inactive	inactive	inactive	inactive	inactive	–	–	–
CC(=O)O[C@H]1CC[C@@]2(C)[C@@H](CC[C@H]3[C@@H]4CC[C@H](OC(C)=O)[C@@]4(C)C[C@H](O)[C@@]32F)C1	–	Active	–	–	Active	–	–	–	–
CC(C)C(=O)O[C@H]1CC[C@H]2[C@@H]3CC[C@H]4C[C@@H](O)CC[C@]4(C)[C@@]3(F)[C@@H](O)C[C@]12C	inactive	Active	Active	inactive	–	inactive	–	–	–
CCC(=O)O[C@H]1CC[C@H]2[C@@H]3CC[C@H]4C[C@@H](OC(C)=O)CC[C@]4(C)[C@@]3(F)[C@@H](O)C[C@]12C	–	Active	Active	–	–	–	Active	Active	–
CC(=O)O[C@H]1CC[C@@]2(C)[C@@H](CC[C@H]3[C@@H]4CC[C@H](O)[C@@]4(C)C[C@H](O)[C@@]32F)C1	–	–	–	inactive	–	–	Active	–	Active
CC(=O)O[C@H]1CC[C@@]2(C)[C@@H](CC[C@H]3[C@@H]4CCC(=O)[C@@]4(C)C[C@H](O)[C@@]32F)C1	inactive	Active	–	inactive	Active	inactive	inactive	inactive	inactive
